Assay results: patent US20180333382A1, “PHARMACEUTICAL COMPOSITIONS COMPRISING DGLA AND USE OF SAME” (DS Biopharma Limited, priority 2017, published 2018)

Assay: Phase one study part 2: multiple dose (28 days) plasma PK of free and total DGLA
Type: in vivo, human
Protocol: Multiple dose part two of the study comprised two cohorts (Cohorts five and six) of eight subjects each, who were administered multiple doses of study drug in the fasted state for 28 days. Subjects in Cohorts five and six received DS107G at 2000 or 4000 mg, respectively, or matching placebo once daily for 28 days. Cohort six was started after Cohort five's safety data were evaluated by the SMC. No interim analysis was planned. […]
In Part two of the study (Cohorts five and six), subjects were administered study drug (500-mg DS107G capsules or matching placebo capsules) once daily in the fasted state for 28 days. Subjects in Cohort five received study drug first and, if they tolerated the 2000-mg daily dose for the first 14 days, subjects in Cohort six were started on the 4000-mg daily dose for 28 days.
PK parameter was computed after correcting the dosed DGLA concentrations with baseline DGLA concentrations.

[1] = 2000 mg once daily, Day 1, 0 to 24 hours
[2] = 2000 mg once daily, Day 28, 0 to 24 hours
[3] = 2000 mg once daily, Day 28, 0 to 168 hours
[4] = 2000 mg once daily, Day 28: 0 to 24 hours
[5] = 4000 mg once daily, Day 1, 0 to 24 hours

## CCCCC/C=C\C/C=C\C/C=C\CCCCCCC(=O)O [DS107G, Dihomo gamma linolenic acid]
2000 mg
  free DGLA mean accumulation ratio (AR), AUC: ~3.3
  free DGLA mean accumulation ratio (AR), Cmax: ~2.8
[1]
  AUC0-24, mean, free DGLA, baseline-corrected plasma: 4548.7 ng·h/mL
  AUC0-24/Dose, mean, free DGLA, baseline-corrected plasma: 2.27 h/kL
  AUC0-24/Dose, mean, total DGLA, baseline-corrected plasma: 149.09 h/kL
  AUC0-inf, mean, free DGLA, baseline-corrected plasma: 5955.6 ng·h/mL
  AUC0-inf/Dose, mean, free DGLA, baseline-corrected plasma: 2.98 h/kL
  AUC0-inf/Dose, mean, total DGLA, baseline-corrected plasma: 2080.61 h/kL
  CL/F, mean, free DGLA, baseline-corrected plasma: 0.5448 kL/h
  Cmax, mean, free DGLA, baseline-corrected plasma: 850.5 ng/mL
  Cmax/Dose, mean, free DGLA, baseline-corrected plasma: 0.425 kL⁻¹
  Cmax/Dose, mean, total DGLA, baseline-corrected plasma: 9.050 kL⁻¹
  λz, mean, free DGLA, baseline-corrected plasma: 0.2133 h⁻¹
  λz, mean, total DGLA, baseline-corrected plasma: 0.221 h⁻¹
[2]
  AUC0-24, mean, free DGLA, baseline-corrected plasma: 9248.1 ng·h/mL
  AUC0-24/Dose, mean, free DGLA, baseline-corrected plasma: 4.62 h/kL
  AUC0-24/Dose, mean, total DGLA, baseline-corrected plasma: 675.69 h/kL
  AUC0-inf, mean, free DGLA, baseline-corrected plasma: 10389.0 ng·h/mL
  AUC0-inf/Dose, mean, free DGLA, baseline-corrected plasma: 5.19 h/kL
  AUC0-inf/Dose, mean, total DGLA, baseline-corrected plasma: 2579.58 h/kL
  CL/F, mean, free DGLA, baseline-corrected plasma: 0.2002 kL/h
  Cmax, mean, free DGLA, baseline-corrected plasma: 1999.3 ng/mL
  Cmax/Dose, mean, free DGLA, baseline-corrected plasma: 1.000 kL⁻¹
  Cmax/Dose, mean, total DGLA, baseline-corrected plasma: 37.792 kL⁻¹
  λz, mean, free DGLA, baseline-corrected plasma: 0.1282 h⁻¹
  λz, mean, total DGLA, baseline-corrected plasma: 0.0199 h⁻¹
[3]
  AUC0-24, mean, free DGLA, baseline-corrected plasma: 9248.1 ng·h/mL
  AUC0-24/Dose, mean, free DGLA, baseline-corrected plasma: 4.62 h/kL
  AUC0-24/Dose, mean, total DGLA, baseline-corrected plasma: 675.69 h/kL
  AUC0-inf, mean, free DGLA, baseline-corrected plasma: 43024.8 ng·h/mL
  AUC0-inf/Dose, mean, free DGLA, baseline-corrected plasma: 21.51 h/kL
  AUC0-inf/Dose, mean, total DGLA, baseline-corrected plasma: 2513.91 h/kL
  CL/F, mean, free DGLA, baseline-corrected plasma: 0.0949 kL/h
  Cmax, mean, free DGLA, baseline-corrected plasma: 1999.3 ng/mL
  Cmax/Dose, mean, free DGLA, baseline-corrected plasma: 1.000 kL⁻¹
  Cmax/Dose, mean, total DGLA, baseline-corrected plasma: 37.792 kL⁻¹
  λz, mean, free DGLA, baseline-corrected plasma: 0.0250 h⁻¹
  λz, mean, total DGLA, baseline-corrected plasma: 0.0169 h⁻¹
[4]
  % PTF (peak trough fluctuation), mean, free DGLA, steady-state baseline-corrected plasma: 492.54%
  % PTF (peak trough fluctuation), mean, total DGLA, steady-state baseline-corrected plasma: 62.50%
  AR(AUC) accumulation ratio, mean, free DGLA, steady-state baseline-corrected plasma: 3.340
  AR(AUC) accumulation ratio, mean, total DGLA, steady-state baseline-corrected plasma: 7.991
  AR(Cmax) accumulation ratio, mean, free DGLA, steady-state baseline-corrected plasma: 2.796
  AR(Cmax) accumulation ratio, mean, total DGLA, steady-state baseline-corrected plasma: 5.156
  CLss/F, mean, free DGLA, steady-state baseline-corrected plasma: 0.2295 kL/h
  CLss/F, mean, total DGLA, steady-state baseline-corrected plasma: 0.0016 kL/h
  Cavg, mean, free DGLA, steady-state baseline-corrected plasma: 385.3 ng/mL
  Cavg, mean, total DGLA, steady-state baseline-corrected plasma: 56307.2 ng/mL
  Cmin, mean, free DGLA, steady-state baseline-corrected plasma: 100.8 ng/mL
  Cmin, mean, total DGLA, steady-state baseline-corrected plasma: 37933.3 ng/mL
  Vzss/F, mean, free DGLA, steady-state baseline-corrected plasma: 5.3096 kL
  Vzss/F, mean, total DGLA, steady-state baseline-corrected plasma: 0.0980 kL
  tmin, median, free DGLA, steady-state baseline-corrected plasma: 8.00 h
  tmin, median, total DGLA, steady-state baseline-corrected plasma: 1.50 h
4000 mg
  free DGLA mean accumulation ratio (AR), AUC: ~1.6
  free DGLA mean accumulation ratio (AR), Cmax: ~1.4
[5]
  AUC0-24, mean, free DGLA, baseline-corrected plasma: 11441.4 ng·h/mL
  AUC0-24/Dose, mean, free DGLA, baseline-corrected plasma: 2.86 h/kL
  AUC0-24/Dose, mean, total DGLA, baseline-corrected plasma: 114.05 h/kL
  AUC0-inf, mean, free DGLA, baseline-corrected plasma: 13900.3 ng·h/mL
  AUC0-inf/Dose, mean, free DGLA, baseline-corrected plasma: 3.48 h/kL
  CL/F, mean, free DGLA, baseline-corrected plasma: 0.3325 kL/h
  Cmax, mean, free DGLA, baseline-corrected plasma: 2641.5 ng/mL
  Cmax/Dose, mean, free DGLA, baseline-corrected plasma: 0.660 kL⁻¹
  Cmax/Dose, mean, total DGLA, baseline-corrected plasma: 6.967 kL⁻¹
  λz, mean, free DGLA, baseline-corrected plasma: 0.1504 h⁻¹
